Measured values taken from patent publication US20120189579A1 (priority 2009, published 2012).
Counter-ions that a name gives are not always drawn.

Assays:
[1] = target: T1, HCV NS5BΔ21/Gal4-DBD fusion protein (Hepatitis C virus genotype 1b, UniProt Q9WMX2); experiment: 3D-SCREEN assay (NS5B reporter gene assay in Huh-7 cells); format: cell-based, HCV genotype 1b
T1 construct: The protein was expressed with a 21 amino acid C-terminal deletion to remove transmembrane domain; expressed in transfected cells; host or cells: Huh-7 (transient transfection)
Experimental: Human Hepatoma Huh-7 cell line was maintained in DMEM/HAMF-12 supplemented with 10% SVF, 4 mM glutamine, […] Na pyruvate, 1% penistreptomycine. HCV replicon containing Huh-7 cell lines Huh-9.13 and Luc Neo ET (Reblikon) were maintained in DMEM supplemented with 10% SVF, 2 mM glutamine, and 1×NEAA, 100 U/ml penicillin, and 100 μg/ml streptomycine. Replicon cells were maintained in medium supplemented with 1 mg/ml G418 for replicon Huh-9.13 and 0.5 mg/ml for Luc Neo et replicon unless indicated otherwise. Huh-7 and HCV replicon cell lines were maintained at 37° C. and 5% CO2 in a humidified atmosphere. Cells were dissociated at sub confluence with trypsin EDTA 1×.
cDNA encoding HCV NS5B genotype 1b, was cloned in frame with Gal4-DNA Binding Domain. The protein was expressed with a 21 amino acid C-terminal deletion to remove transmembrane domain. Expression of NS5BΔ21/Gal4 DBD fusion protein was under control of SV40 early promoter. 3D-Sensor peptide was cloned in frame with VP16 activation domain. Expression of 3D-Sensor/VP16 AD fusion protein was under control of CMV promoter. Expression of the firefly luciferase reporter gene was inducible by the [Target protein/conformation sensitive peptide/VP16AD] complex.
It is a single-target, cell based assay. Briefly, expression of a reporter gene depends on the interaction of a short peptide, thereafter named 3D-Sensor, and native conformation of the target protein. Whenever the conformation of the target protein is modified, interaction between 3D-sensor and target protein is disrupted and reporter gene is not expressed anymore. Conformation modifiers are identified by loss of expression of reporter gene. NS5B 3D-Screen platform was generated in Huh-7 cell lines by transient transfection of three expression vectors encoding respectively • (i) HCV NS5BΔ21/Gal4-DBD fusion protein • (ii) the 3D-sensor peptide 14/VP16 fusion protein • (iii) the firefly luciferase reporter gene
Huh-7 cells were dissociated the day before transfection and seeded in T175 flasks at a density of 10^7 cells in 30 ml culture medium. Equimolar ratios of vectors were transfected in cell according to optimized jetPEI transfection protocol (PolyPlus Transfection, Illkirch, France) and 10 μg total DNA/10^6 cells. Transfection was performed for 2 hours at 37° C. and 5% CO2 in a humidified atmosphere. After two hours cells were dissociated and seeded in 96 wells plates at a density of 25,000 cells per well and 90 μl culture medium. 10 μl of compounds to be tested were added 2 hours after seeding. Final concentration of DMSO was 1%. Cells were incubated in the presence of compounds for 24 hours after which expression of firefly luciferase reporter gene was quantified. Briefly, culture medium was removed and cells were lysed by addition of 100 μl of lysis buffer containing 125 mM Tris Phosphate ph 7.8, 10 mM EDTA, 5 mM DTT, 50% glycerol and 5% Triton. Plates were vortexed 10 min at 1300 rpm. Cell lysat was transferred in OpaqueWhite Assay 96 well Flat Bottom plates. 100 μl of luciferin solution 1× were added to each well. Luciferin solution contained 40 mM Tris Phosphate ph 7.8, 0.2 mM EDTA, 67 mM DTT, 2.14 mM MgCl2, 5.4 mM MgSO4, 4.7×10^−4 M luciferin, 5.3×10^−4 M ATP and 2.7×10^−4 M Acetyl co enzyme A. Luminescence was immediately measured with Berthold Microlumat Plus LB 96V luminometer with an integration of 0.5 sec. Inhibition was calculated using the formula: % inhibition=(1−(read/average max))*100. Average max=signal in absence of compound

melting point | Structure (SMILES) | EC50 [1]
172 °C | CC(C)(C)c1ccc(C2C(C(=O)CCc3ccccc3)=C(O)C(=O)N2c2ncc(S(=O)(=O)c3ccc([N+](=O)[O-])cc3)s2)cc1 (stereo not drawn) | 
211 °C | Cc1ccc(C(=O)C2=C(O)C(=O)N(c3ncc(S(=O)(=O)c4ccc([N+](=O)[O-])cc4)s3)C2c2cccnc2)cc1 (stereo not drawn) | 
255 to 257 °C | COC(=O)c1ccc(C2C(C(=O)c3ccc(OC)cc3)=C(O)C(=O)N2c2nnc(C)s2)cc1 (stereo not drawn) | 
308 to 309 °C | Cc1ccc(C(=O)C2=C(O)C(=O)N(c3ncc(S(=O)(=O)c4ccc([N+](=O)[O-])cc4)s3)C2c2ccc(C(=O)O)cc2)cc1 (stereo not drawn) | 
281 °C | COc1ccc(C(=O)C2=C(O)C(=O)N(c3nnc(C)s3)C2c2ccc(C(=O)O)cc2)cc1 (stereo not drawn) | 
281 °C | COc1ccc(C(=O)C2=C(O)C(=O)N(c3nnc(C)s3)C2c2cccc(C(=O)O)c2)cc1 (stereo not drawn) | 
185 °C | COc1ccc(C(=O)C2=C(O)C(=O)N(c3nnc(C)s3)C2c2ccc(C#N)cc2)cc1 (stereo not drawn) | 
251 °C | COc1ccc(C(=O)C2=C(O)C(=O)N(c3nnc(C)s3)C2c2ccc(O)cc2)cc1 (stereo not drawn) | 
218 °C | COC(=O)c1cccc(C2C(C(=O)c3ccc(OC)cc3)=C(O)C(=O)N2c2nnc(C)s2)c1 (stereo not drawn) | 
237 °C | COC1=C(C(=O)c2ccc(C)cc2)C(c2ccc(C(C)C)cc2)N(c2ncc(S(=O)(=O)c3ccc([N+](=O)[O-])cc3)s2)C1=O (stereo not drawn) | 
235 to 237 °C | COC1=C(C(=O)c2ccc(OC)cc2)C(c2ccc(C(C)(C)C)cc2)N(c2nnc(C)s2)C1=O (stereo not drawn) | 
269 to 271 °C | Cc1ccc(C(=O)C2=C(O)C(=O)N(c3ncc(S(C)(=O)=O)s3)C2c2ccc(C(C)C)cc2)cc1 (stereo not drawn) | 
205 °C | Cc1ccc(C(=O)C2=C(O)C(=O)N(c3ncc(S(=O)(=O)c4ccc([N+](=O)[O-])cc4)s3)C2c2ccc(C(=O)N(C)C)cc2)cc1 (stereo not drawn) (as salt: hydrochloride) | 
195 to 197 °C | CNC(=O)c1ccc(C2C(C(=O)c3ccc(C)cc3)=C(O)C(=O)N2c2ncc(S(=O)(=O)c3ccc([N+](=O)[O-])cc3)s2)cc1 (stereo not drawn) (as salt: hydrochloride) | 
238 °C | CNC(=O)c1cccc(C2C(C(=O)c3ccc(OC)cc3)=C(O)C(=O)N2c2nnc(C)s2)c1 (stereo not drawn) (as salt: hydrochloride) | 
 | CC(C)c1ccc(C2C(C(=O)c3ccc(C(C)(C)C)cc3)=C(O)C(=O)N2c2ncc(S(=O)(=O)c3ccc([N+](=O)[O-])cc3)s2)cc1 (stereo not drawn) [Example 9, 4-(4-tert-butyl-benzoyl)-3-hydroxy-5-(4-isopropyl-phenyl)-1-[5-(4-nitro-benzenesulfonyl)-thiazol-2-yl]-1,5-dihydro-pyrrol-2-one] | 4 µM

melting point | Structure (SMILES) | EC50 [1]
 | CC(C)c1ccc(C2C(C(=O)Cc3ccccc3)=C(O)C(=O)N2c2ncc(S(=O)(=O)c3ccc([N+](=O)[O-])cc3)s2)cc1 (stereo not drawn) [Example 11, 3-hydroxy-5-(4-isopropyl-phenyl)-1-[5-(4-nitro-benzenesulfonyl)-thiazol-2-yl]-4-phenylacetyl-1,5-dihydro-pyrrol-2-one] | 12 µM
 | CC(C)c1ccc(C2C(C(=O)c3ccc(OC(F)(F)F)cc3)=C(O)C(=O)N2c2ncc(S(=O)(=O)c3ccc([N+](=O)[O-])cc3)s2)cc1 (stereo not drawn) [Example 13, 3-hydroxy-5-(4-isopropyl-phenyl)-1-[5-(4-nitro-benzenesulfonyl)-thiazol-2-yl]-4-(4-trifluoromethoxy-benzoyl)-1,5-dihydro-pyrrol-2-one] | 2 µM
 | COc1ccc(C(=O)C2=C(O)C(=O)N(c3nnc(C4CCCCC4)s3)C2c2ccc(C(C)(C)C)cc2)cc1 (stereo not drawn) [Example 27] | 12 µM
 | COc1ccc(C(=O)C2=C(O)C(=O)N(c3nnc(-c4ccccc4)s3)C2c2ccc(C(C)(C)C)cc2)cc1 (stereo not drawn) [Example 30, 5-(4-tert-butyl-phenyl)-3-hydroxy-4-(4-methoxy-benzoyl)-1-(5-phenyl-[1,3,4]thiadiazol-2-yl)-1,5-dihydro-pyrrol-2-one] | 6 µM
 | CC(C)c1ccc(C2C(C(=O)c3ccc(Cl)cc3)=C(O)C(=O)N2c2ncc(S(=O)(=O)c3ccc([N+](=O)[O-])cc3)s2)cc1 (stereo not drawn) [Example 32] | 2 µM
 | CC(C)c1ccc(C2C(Cc3ccccc3)=C(O)C(=O)N2c2ncc(S(=O)(=O)c3ccc([N+](=O)[O-])cc3)s2)cc1 (stereo not drawn) [Example 36, 4-benzyl-3-hydroxy-5-(4-isopropyl-phenyl)-1-[5-(4-nitro-benzenesulfonyl)-thiazol-2-yl]-1,5-dihydro-pyrrol-2-one] | 5 µM
 | COc1ccc(C2C(C(=O)c3ccc(Cl)cc3)=C(O)C(=O)N2c2ncc(S(=O)(=O)c3ccc([N+](=O)[O-])cc3)s2)cc1 (stereo not drawn) [Example 52] | 6 µM
 | COc1ccc(C2C(C(=O)c3ccc(C)cc3)=C(O)C(=O)N2c2ncc(S(=O)(=O)c3ccc([N+](=O)[O-])cc3)s2)cc1 (stereo not drawn) [Example 53] | 6 µM
 | CC(C)(C)c1ccc(C2C(C(=O)c3nccs3)=C(O)C(=O)N2c2ncc(S(=O)(=O)c3ccc([N+](=O)[O-])cc3)s2)cc1 (stereo not drawn) [Example 56, 5-(4-tert-butyl-phenyl)-3-hydroxy-1-[5-(4-nitro-benzenesulfonyl)-thiazol-2-yl]-4-(thiazol-2-carbonyl)-1,5-dihydro-pyrrol-2-one] | < 10 µM
 | O=C(C1=C(O)C(=O)N(c2ncc(S(=O)(=O)c3ccc([N+](=O)[O-])cc3)s2)C1c1cccc(Br)c1)c1ccc(Cl)cc1 (stereo not drawn) [Example 57] | 4 µM
 | O=C(C1=C(O)C(=O)N(c2ncc(S(=O)(=O)c3ccc([N+](=O)[O-])cc3)s2)C1c1cccc(Cl)c1)c1ccc(Cl)cc1 (stereo not drawn) [Example 59] | 14 µM
 | Cc1ccc(C(=O)C2=C(O)C(=O)N(c3ncc(S(=O)(=O)c4ccc([N+](=O)[O-])cc4)s3)C2c2ccc(Cl)cc2)cc1 (stereo not drawn) [Example 60] | 13 µM
 | COC(=O)c1sc(N2C(=O)C(O)=C(C(=O)c3ccc(Cl)cc3)C2c2ccc(C(C)(C)C)cc2)nc1C (stereo not drawn) [Example 62] | 20 µM
 | Cc1ccc(C2C(C(=O)c3ccc(Cl)cc3)=C(O)C(=O)N2c2ncc(S(=O)(=O)c3ccc([N+](=O)[O-])cc3)s2)cc1 (stereo not drawn) [Example 66] | 14 µM
 | Cc1ccc(C(=O)C2=C(O)C(=O)N(c3ncc(S(=O)(=O)c4ccc([N+](=O)[O-])cc4)s3)C2c2ccc(C)cc2)cc1 (stereo not drawn) [Example 124] | 7 µM

Structure (SMILES) | melting point | EC50 [1]
CON=C(C1=C(O)C(=O)N(c2ncc(S(=O)(=O)c3ccc([N+](=O)[O-])cc3)s2)C1c1ccc(C(C)C)cc1)c1ccc(C)cc1 (mixture of isomers) [Example 49, 3-hydroxy-5-(4-isopropyl-phenyl)-4-{[methoxyimino]-p-tolyl-methyl}-1-[5-(4-nitro-benzenesulfonyl)-thiazol-2-yl]-1,5-dihydro-pyrrol-2-one] | 156 °C | 4 µM
COC(=O)c1ccc(C2C(C(=O)c3ccc(C)cc3)=C(O)C(=O)N2c2ncc(S(=O)(=O)c3ccc([N+](=O)[O-])cc3)s2)cc1 (stereo not drawn) [Example 4, 4-{4-hydroxy-3-(4-methyl-benzoyl)-1-[5-(4-nitro-benzenesulfonyl)-thiazol-2-yl]-5-oxo-2,5-dihydro-1H-pyrrol-2-yl}-benzoic acid methyl ester] | 249 to 251 °C | 10 µM
COc1ccc(C(=O)C2=C(O)C(=O)N(c3nncs3)C2c2ccc(C(C)(C)C)cc2)cc1 (stereo not drawn) [Example 18, 5-(4-tert-butyl-phenyl)-3-hydroxy-4-(4-methoxy-benzoyl)-1-[1,3,4]thiadiazol-2-yl-1,5-dihydro-pyrrol-2-one] | 289 to 291 °C | 7 µM
COc1ccc(C(=O)C2=C(O)C(=O)N(c3nnc(C)s3)C2c2ccc(OC(F)(F)F)cc2)cc1 (stereo not drawn) [Example 20, 3-hydroxy-4-(4-methoxy-benzoyl)-1-(5-methyl-[1,3,4]thiadiazol-2-yl)-5-(4-trifluoromethoxy-phenyl)-1,5-dihydro-pyrrol-2-one] | 245 to 247 °C | 4 µM
